Here are results for two compounds from US20110003013A1, “METHOD OF INCREASING METABOLISM” (GARVAN INSTITUTE OF MEDICAL RESEARCH, priority 2008, published 2011).

Data set [1] can be described thus: Body weight of mice on high fat diet with DFS. The format is in vivo, C57Bl/6 mice. Particulars: Studies 1-4, vs control mice, from about 3 to about 10 weeks after commencement. The protocol: Four studies were performed using C57Bl/6 mice. Study 1 included 30 control mice and 30 mice administered DFS. Study 2 included 30 control mice and 30 mice administered DFS. Study 3 included 8 control mice and 8 mice administered DFS. Study 4 included 18 control mice and 18 mice administered DFS. Mice in Study 3 differed to those in studies 1 and 2 in so far as they were sourced from different colonies.
Mice were randomly separated equally into a treatment group receiving Deferasirox (DFS) or a control group (CON). DFS was powdered using a mortar and pestle and mixed in thoroughly with the dry mineral mix prior to the addition of melted lard and then left to harden overnight in the refrigerator to form high-fat diet (HFD). From 6 weeks of age for up to 25 weeks, the mice were then fed ad libitum this HFD, from which 45% of their calories were derived from animal lard.
Each mouse was weighed weekly and the blood glucose levels assessed at random times every second week alternating with rectal temperatures. Intraperitoneal Glucose Tolerance Testing (IPGTT) was carried out at week 5 and 21 using 2g glucose/kg dose. Insulin Tolerance Testing (ITT) was carried at week 2 (0.33 U/kg) and week 6 (0.50 U/kg). Glucose Stimulated Insulin Secretion (GSIS)(3g glucose/kg) was studied out at week 7. Food intake studies were carried out at weeks 0, 4, 8 and 25. […]

Data set [2] can be described thus: Indirect calorimetry (Oxymax): VO2, VCO2, RER, heat, activity. The format is in vivo, C57Bl/6 mice. The protocol: (§1) Each mouse was weighed weekly and the blood glucose levels assessed at random times every second week alternating with rectal temperatures. Intraperitoneal Glucose Tolerance Testing (IPGTT) was carried out at week 5 and 21 using 2g glucose/kg dose. Insulin Tolerance Testing (ITT) was carried at week 2 (0.33 U/kg) and week 6 (0.50 U/kg). Glucose Stimulated Insulin Secretion (GSIS)(3g glucose/kg) was studied out at week 7. Food intake studies were carried out at weeks 0, 4, 8 and 25. Indirect calorimetry was performed using the Oxymax System (Columbus Instruments, Columbus, Ohio) at weeks 0, 4, 8 and 25. Measurements were taken over a 12-hour light cycle and a 12-hour dark cycle.
Mice were placed with ad libitum food and water in separate chambers in an 8 chamber, indirect open circuit calorimeter (Columbus Oxymax Respirometer 0246-002M, Columbus Instruments Ohio USA) for 36-48 hours. This machine obtains periodic measurements of the percentage of oxygen and carbon dioxide in the test chamber. Changes in gas concentrations are used to calculate the rate of oxygen consumption (VO2) and carbon dioxide production (VCO2) per mouse, with a readout every 27 minutes (Oxymax Software 0246-102M). The software calculates heat production per mouse and the respiratory exchange ratio (RER) (VCO2/VO2) using VO2 and VCO2. Activity levels were simultaneously measured in 2 dimensions (Opto-M3 activity meter) using […] wavelength light beams. Ambulatory movements were registered when more than one light beams in the same axis were crossed by an animal in a given period of time. The last 24 hours of data were analysed to allow for an acclimatisation period.
The hourly mean VO2 and VCO2 (mL/hr/kg total body weight) were calculated by averaging the VO2 and VCO2 readings produced by the Oxymax software for each hour. VO2 and VCO2 per unit of lean body mass (VXX2LM) was calculated from the Oxymax results (VXX2) using the following equation: […]
The hourly mean RER and the total, light and dark RER were calculated in a similar manner to VO2 and VCO2. No adjustment for body weight was required.
Heat (total energy expenditure, kcal/hr/mouse) was calculated by the Oxymax software using the formula:
Heat=CV (calorific value)*VO2 where CV=3.815+(1.232*RER)
The hourly mean heat production and the total, light and dark heat production were calculated in a similar manner to VO2 and VCO2. Heat production per unit of lean body mass was calculated by dividing the Oxymax reading by unit of lean body mass.
To quantify activity levels, the total number of ambulatory movements in the x axis and the y axis was calculated per unit time for each mouse.
Oxymax data were analysed using t-tests.

Data set [3] can be described thus: Weight of visceral, white and brown adipose tissue. The format is in vivo, C57Bl/6 mice. To be noted: high fat diet, vs control mice.
The nature of data set [4]: Food intake studies. The format is in vivo, C57Bl/6 mice. The procedure: as §1
The nature of data set [5]: Fasting plasma insulin and glucose stimulated insulin secretion (GSIS). The format is in vivo, C57Bl/6 mice. The procedure: as §1
(§2) Plasma insulin was measured with ELISA kits. Liver transaminases and plasma lipids were performed by Sydpath Pathology, St Vincent's Hospital. Liver triglycerides were extracted using methanol/chloroform 2:1 and detected using colorimetric assay.

Data set [6] in a line: Blood glucose levels assessed at random times. It is filed as in vivo, C57Bl/6 mice. Particulars: over 9 weeks of high fat diet, vs CON mice. The procedure: as §1
Data set [7] is described as follows: Intraperitoneal glucose tolerance test. The format is in vivo, C57Bl/6 mice. To be noted: 2 g glucose/kg i.p., vs CON mice. The protocol:
as §1
Mice were fasted overnight for 16 hours. Glucose was administered at a dose of 2g/kg by intraperitoneal injection in the form of a 20% dextrose solution. Blood glucose was measured via glucometer (Accucheck Advantage II, Roche, Australia) prior to, and at 15, 30, 60, 90 and 120 minutes after the dextrose injection.
Mice were fasted for 6 hours before intraperitoneal administration of glucose (2 g/kg dose) in sterile water. Blood glucose was measured by glucometer at the times indicated.

Data set [8] can be described thus: Insulin tolerance test. The format is in vivo, C57Bl/6 mice. The protocol:
as §1
Mice were fasted overnight for 16 hours. Insulin was injected at 0.5 units per kg (diluted in 1× PBS with 1% bovine serum albumin) by intraperitoneal injection. Blood glucose was measured via glucometer prior to, and at 10, 20, 30, 45 and 60 minutes after the insulin injection.

Data set [9] is described as follows: HFD-induced hepatic lipid accumulation (steatosis). It is filed as in vivo, C57Bl/6 mice. Particulars: 10 weeks on HFD, vs CON mice, data not shown. The procedure:
(§3) Mice livers were fixed in 10% buffered formaldehyde, embedded in paraffin and slides were prepared using standard haematoxylin and eosin as well as Perl staining to visualize hepatic iron.
as §2

Data set [10] in a line: Iron levels in the liver. Particulars: vs CON mice, data not shown. It is filed as in vivo, C57Bl/6 mice. The protocol: as §3
Data set [11] deals with HIF-1α. Description: Western blot of liver lysates for HIF-1α. It is filed as in vivo, C57Bl/6 mice. To be noted: vs control. The protocol:
Fresh tissues were removed rapidly from culled animals and kept frozen in the −80° C. freezer. They were then homogenized in lysis buffer and sonicated in cold RIPA buffer ([…] pH 7.4, 1% NP40, 0.25% sodium deoxycholate, […], 1 mM EDTA, 1 mM PMSF and protease inhibitor cocktail). 121 μg of protein sample was resolved on an 8% SDS PAGE gel. Proteins were transferred onto nitrocellulose membrane. Primary antibodies (HIF-1α, and (β-tubulin) were prepared in milk buffers at concentrations of 1:500 and 1:2000 respectively and the membrane was incubated overnight at 4° C. Membranes were then rinsed with Phosphate Buffered Solution containing Tween and HRP-conjugated secondary antibodies (at 1:1000 dilution). Proteins were visualised using enhanced chemiluminescence.
A general note: A western blot detects proteins with antibodies after separation by electrophoresis.

For data set [12], the system named is AKT2, IRS1, IRS2, PFK, GLUT2, HSL, LPL. Briefly: Liver gene expression by quantitative real-time PCR. It is filed as in vivo, C57Bl/6 mice. To be noted: vs control. From the text: Tissues were homogenized in extraction buffer and RNA was isolated according to the RNeasy Kit protocol. […] The level of mRNA for each gene was normalized to the level of TATA box binding-protein (TBP) mRNA in each sample.

Data set [13] in a line: Blood and liver safety parameters (haemoglobin, white blood counts, transaminases, serum iron). It is filed as in vivo, C57Bl/6 mice. Particulars: vs control mice. The protocol: as §2
A short description of data set [14]: Body weight of ob/ob mice on chow diet with DFS. Particulars: vs control ob/ob mice. The format is in vivo. The procedure:
Studies were also performed using ob/ob mice, in particular, 5 ob/ob controls and 5ob/ob mice administered DFS. Wild type C57bl/6 mice were also used as controls, 4 untreated and 4 administered DFS.

The structures appear in SMILES notation. “Also recorded” adds a separate entry of the source.

For the compound `O=C(O)c1ccc(-n2nc(-c3ccccc3O)nc2-c2ccccc2O)cc1` [DFS, 4-[3,5-Bis (2-hydroxyphenyl)-1H-1,2,4-triazol-1-yl]-benzoic acid], the “body weight / weight gain” value in data set [1] was “significantly reduced body weights; also recorded: decreases weight gain”. Further, in data set [2] (after 8 weeks of high fat diet and DFS, vs control mice), the “oxygen consumption (VO2)” value is “significantly increased; also recorded: consume significantly more oxygen than control mice”. Moreover, in data set [2] (after 25 weeks of high fat diet and DFS, vs control mice), the “oxygen consumption (VO2)” value is “significantly increased; also recorded: consume significantly more oxygen than control mice”. In data set [2] (high fat diet, vs control mice), the metabolic rate entry is listed as “significantly higher metabolic rate” and the “respiratory exchange ratio (RER) (VCO2/VO2)” value is “significantly reduced”. Moreover, the “energy expenditure (EE) or heat production” value in data set [2] (over a day, high fat diet, vs control mice) is “significantly higher energy expenditure”. In addition, the “oxygen consumption (VO2) / baseline metabolic rate” value in data set [2] (week 0 (initial week of high fat diet and DFS), vs control mice) is “similar; also recorded: no significant difference”. The CO2 production entry in data set [2] (week 8 of continuous DFS treatment, vs control mice) is “significantly increased”. For the same compound, the CO2 production entry in data set [2] (week 25 of continuous DFS treatment, vs control mice) is “significantly increased”. Besides, in data set [3], the “weight of brown adipose tissue (BAT)” value is on record as “unchanged”, the “weight of visceral adipose tissue (VAT)” value is given as “reduced; also recorded: significantly lighter” and the “weight of white adipose tissue (WAT)” value was “reduced; also recorded: significantly lighter”. Besides, the “food consumed adjusted per body weight” value in data set [4] (by 25 weeks, HFD, vs CON mice) is on record as “eaten more HFD adjusted per body weight; also recorded: consumed significantly more food per gram of body weight”. Further, the feed intake entry in data set [4] (week 0, vs CON animals) was “did not differ”. For the same compound, in data set [5] (high fat diet, p<0.005), the “mean fasting insulin levels vs control” value is listed as “significantly lower”. Also, the fasting insulin levels in data set [5] (high fat diet, mean + SEM, p=0.005 vs control) is listed as 2837+874 pmol/L. The “glucose stimulated insulin secretion (GSIS) profile” value in data set [5] (week 7, 3 g glucose/kg, vs control) is on record as “better preservation”. Also, in data set [6], the “blood glucose levels at random times” value was “generally had lower blood glucose levels; also recorded: significantly lower blood glucose levels”. In addition, in [7] (21 weeks of high fat diet), the glucose tolerance entry was “continued beyond at least week 21; also recorded: significantly improved insulin tolerance”. For the same compound, the glucose tolerance entry in data set [7] (five weeks of high fat diet) is reported as “significantly better glucose tolerance; also recorded: significantly improved glucose tolerance”. For the same compound, the “insulin tolerance (ITT)” value in data set [8] (following five weeks of high fat diet, vs CON mice) is recorded as “performed significantly better; also recorded: significantly improved insulin tolerance”. For the same compound, the “proportion of animals with glucoses <2 mmol/L” value in data set [8] (vs 38% of controls, p<0.001, indicating improved insulin sensitivity, data not shown) is recorded as “About 80%”. Further, in data set [9], the macroscopic hepatic steatosis entry is “relatively protected”. In addition, the liver iron levels entry in data set [10] is listed as “lower iron levels”. Moreover, the “level of HIF-1α relative to β-tubulin” value in data set [11] is “increased HIF-1α; also recorded: higher levels of HIF-1α”. In addition, in data set [12] (normalized to TBP mRNA), the AKT2 gene expression result is listed as “significantly increased”, the IRS1 gene expression result is recorded as “significantly increased; also recorded: increased expression”, the IRS2 gene expression entry was “significantly increased” and the PFK gene expression result is recorded as “significantly increased”. In addition, in [12], the GLUT2 expression result was “trend for improved”, the “hormone sensitive lipase (HSL) gene expression” value is on record as “significantly increased; also recorded: increased expression” and the “lipoprotein lipase (LPL) gene expression” value is “significantly increased; also recorded: increased expression”. Besides, in data set [13], the “haemoglobin levels / anaemia” value is on record as “does not result in anaemia; also recorded: No significant difference”, the “serum alanine transaminase levels” value is recorded as “No significant difference”, the “serum aspartate aminotransferase levels” value is on record as “No significant difference” and the serum iron levels entry is “No significant difference”. In data set [13], the “significantly reduced liver function” value is “does not result in” and the white blood counts result is recorded as “No significant difference”. In addition, the “weight gained over an eight week period” value in [14] (ob/ob mice on chow diet, p<0.0005) was “significantly lower; also recorded: gained significantly less weight”. Further, the body weight result in [14] (ob/ob mice on normal chow diet) was “reduced body weight (or reduced body weight increase)”.

As to `CC(=O)N(O)CCCCCNC(=O)CCC(=O)N(O)CCCCCNC(=O)CCC(=O)N(O)CCCCCN` [DFO], the “metabolism in a subject” value in data set [2] (summary statement of the inventors' work) is listed as “capable of increasing metabolism”.
